c1ccc2c(c1)ccc1ccccc12
solubility (mole fraction)
Conditions	293 K	303 K	313 K	323 K
in 2,2,4-trimethylpentane	0.019	0.036	0.0874	0.138
in n-heptane	0.0154	0.0247	0.036	0.0519
in toluene	0.461	0.499	0.577	0.604
